Experiments:
A549 [1] = experiment: Antiproliferative activity against human A549/ATCC cells assessed as cell growth at 10^-8 M after 48 hrs by sulforhodamine B assay; format: functional; details: A549, 48 h, read-out: Activity
NCI-H23 = experiment: Antiproliferative activity against human NCI-H23 cells assessed as cell growth at 10^-4 M after 48 hrs by sulforhodamine B assay; format: functional; details: NCI-H23, 48 h, read-out: Activity
Malme-3M [2] = experiment: Antiproliferative activity against human MALME-3M cells assessed as cell growth at 10^-7 M after 48 hrs by sulforhodamine B assay; format: functional; details: read-out: Activity
SK-MEL-28 = experiment: Antiproliferative activity against human SK-MEL-28 cells assessed as cell growth at 10^-8 M after 48 hrs by sulforhodamine B assay; format: functional; details: SK-MEL-28, 48 h, read-out: Activity
[3] = Antiproliferative activity against human OVCAR4 cells assessed as cell growth at 10^-7 M after 48 hrs by sulforhodamine B assay; format: functional; details: OVCAR-4, 48 h, read-out: Activity
A549 [4] = experiment: Antiproliferative activity against human A549/ATCC cells assessed as cell growth at 10^-6 M after 48 hrs by sulforhodamine B assay; format: functional; details: A549, 48 h, read-out: Activity
SK-MEL-2 = experiment: Antiproliferative activity against human SK-MEL-2 cells assessed as growth inhibition after 48 hrs by sulforhodamine B assay; format: functional; details: SK-MEL-2, 48 h
SK-MEL-5 = experiment: Antiproliferative activity against human SK-MEL-5 cells assessed as cell growth at 10^-4 M after 48 hrs by sulforhodamine B assay; format: functional; details: SK-MEL-5, 48 h, read-out: Activity
NCI-H322M [5] = experiment: Antiproliferative activity against human NCI-H322M cells assessed as cell growth at 10^-4 M after 48 hrs by sulforhodamine B assay; format: functional; details: read-out: Activity
[6] = Antiproliferative activity against human SF268 cells assessed as cell growth at 10^-7 M after 48 hrs by sulforhodamine B assay; format: functional; details: SF-268, 48 h, read-out: Activity
[7] = Antiproliferative activity against human PC3 cells assessed as cell growth at 10^-4 M after 48 hrs by sulforhodamine B assay; format: functional; details: PC-3, 48 h, read-out: Activity
[8] = Antiproliferative activity against human OVCAR5 cells assessed as cell growth at 10^-7 M after 48 hrs by sulforhodamine B assay; format: functional; details: OVCAR-5, 48 h, read-out: Activity
[9] = Antiproliferative activity against human DU145 cells assessed as cell growth at 10^-8 M after 48 hrs by sulforhodamine B assay; format: functional; details: DU-145, 48 h, read-out: Activity
KM12 = experiment: Antiproliferative activity against human KM12 cells assessed as cell growth at 10^-7 M after 48 hrs by sulforhodamine B assay; format: functional; details: KM12, 48 h, read-out: Activity
U-251 = experiment: Antiproliferative activity against human U251 cells assessed as growth inhibition after 48 hrs by sulforhodamine B assay; format: functional; details: U-251, 48 h
K562 = experiment: Antiproliferative activity against human K562 cells assessed as growth inhibition after 48 hrs by sulforhodamine B assay; format: functional; details: K562, 48 h
A498 [10] = experiment: Antiproliferative activity against human A498 cells assessed as cell growth at 10^-7 M after 48 hrs by sulforhodamine B assay; format: functional; details: A498, 48 h, read-out: Activity
[11] = Antiproliferative activity against human TK10 cells assessed as cell growth at 10^-7 M after 48 hrs by sulforhodamine B assay; format: functional; details: TK-10, 48 h, read-out: Activity
[12] = Antiproliferative activity against human HOP92 cells assessed as cell growth at 10^-6 M after 48 hrs by sulforhodamine B assay; format: functional; details: HOP-92, 48 h, read-out: Activity
[13] = Antiproliferative activity against human MOLT4 cells assessed as growth inhibition after 48 hrs by sulforhodamine B assay; format: functional; details: MOLT-4, 48 h
A549 [14] = experiment: Antiproliferative activity against human A549/ATCC cells assessed as cell growth at 10^-4 M after 48 hrs by sulforhodamine B assay; format: functional; details: A549, 48 h, read-out: Activity
SR = experiment: Antiproliferative activity against human SR cells assessed as cell growth at 10^-6 M after 48 hrs by sulforhodamine B assay; format: functional; details: read-out: Activity
NCI-H322M [15] = experiment: Antiproliferative activity against human NCI-H322M cells assessed as cell growth at 10^-8 M after 48 hrs by sulforhodamine B assay; format: functional; details: read-out: Activity
[16] = Antiproliferative activity against human UO31 cells assessed as cell growth at 10^-4 M after 48 hrs by sulforhodamine B assay; format: functional; details: UO-31, 48 h, read-out: Activity
[17] = Antiproliferative activity against human RXF393 cells assessed as growth inhibition after 48 hrs by sulforhodamine B assay; format: functional; details: RXF 393, 48 h
[18] = biological target: Serine/threonine-protein kinase B-raf (Homo sapiens, UniProt P15056, V600E); experiment: Inhibition of BRAF V600E mutant (unknown origin) measured after 40 mins by scintillation counting
Sequence of Serine/threonine-protein kinase B-raf (P15056 2-766 V600E limits assumed): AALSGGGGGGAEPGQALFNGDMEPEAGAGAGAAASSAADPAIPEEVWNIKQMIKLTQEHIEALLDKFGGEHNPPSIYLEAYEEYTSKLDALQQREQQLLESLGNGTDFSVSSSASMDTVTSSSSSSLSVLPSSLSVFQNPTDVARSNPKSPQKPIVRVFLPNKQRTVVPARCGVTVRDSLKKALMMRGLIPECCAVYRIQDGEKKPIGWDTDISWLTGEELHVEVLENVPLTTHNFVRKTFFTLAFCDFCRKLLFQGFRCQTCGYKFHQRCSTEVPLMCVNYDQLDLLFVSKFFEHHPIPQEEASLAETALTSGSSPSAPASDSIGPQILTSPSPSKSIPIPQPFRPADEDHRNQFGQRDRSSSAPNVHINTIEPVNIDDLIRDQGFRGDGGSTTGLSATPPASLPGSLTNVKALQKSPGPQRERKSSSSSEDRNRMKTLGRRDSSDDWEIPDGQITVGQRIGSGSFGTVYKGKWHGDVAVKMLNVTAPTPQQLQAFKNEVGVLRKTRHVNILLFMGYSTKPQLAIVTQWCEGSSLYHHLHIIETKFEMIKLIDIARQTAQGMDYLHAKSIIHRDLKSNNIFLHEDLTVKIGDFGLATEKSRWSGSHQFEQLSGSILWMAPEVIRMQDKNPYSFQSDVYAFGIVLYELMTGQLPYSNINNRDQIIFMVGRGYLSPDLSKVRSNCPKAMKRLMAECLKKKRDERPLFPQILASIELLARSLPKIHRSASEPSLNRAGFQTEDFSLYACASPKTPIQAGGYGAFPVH

[19] = Antiproliferative activity against human SF539 cells assessed as cell growth at 10^-6 M after 48 hrs by sulforhodamine B assay; format: functional; details: SF-539, 48 h, read-out: Activity
[20] = Antiproliferative activity against human HCT116 cells assessed as cell growth at 10^-4 M after 48 hrs by sulforhodamine B assay; format: functional; details: HCT-116, 48 h, read-out: Activity
NCI-H460 = experiment: Antiproliferative activity against human NCI-H460 cells assessed as cell growth at 10^-4 M after 48 hrs by sulforhodamine B assay; format: functional; details: NCI-H460, 48 h, read-out: Activity
[21] = Antiproliferative activity against human RXF393 cells assessed as cell growth at 10^-7 M after 48 hrs by sulforhodamine B assay; format: functional; details: RXF 393, 48 h, read-out: Activity
[22] = Antiproliferative activity against human LOXIMVI cells assessed as growth inhibition after 48 hrs by sulforhodamine B assay; format: functional; details: LOX IMVI
A498 [23] = experiment: Antiproliferative activity against human A498 cells assessed as cell growth at 10^-4 M after 48 hrs by sulforhodamine B assay; format: functional; details: A498, 48 h, read-out: Activity
[24] = Antiproliferative activity against human SKOV3 cells assessed as cell growth at 10^-8 M after 48 hrs by sulforhodamine B assay; format: functional; details: SK-OV-3, 48 h, read-out: Activity
[25] = Antiproliferative activity against human LOXIMVI cells assessed as cell growth at 10^-8 M after 48 hrs by sulforhodamine B assay; format: functional; details: LOX IMVI, read-out: Activity
SN12C = experiment: Antiproliferative activity against human SN12C cells assessed as cell growth at 10^-6 M after 48 hrs by sulforhodamine B assay; format: functional; details: read-out: Activity
[26] = Antiproliferative activity against human HOP92 cells assessed as cell growth at 10^-7 M after 48 hrs by sulforhodamine B assay; format: functional; details: HOP-92, 48 h, read-out: Activity
Malme-3M [27] = experiment: Antiproliferative activity against human MALME-3M cells assessed as growth inhibition after 48 hrs by sulforhodamine B assay; format: functional
[28] = read-out: LC50 (the source's name)

SMILES: CNC(=O)c1cc(Oc2ccc3nc(NC(=O)c4cc(C(F)(F)F)cc(C(F)(F)F)c4)sc3c2)ccn1
- growth at 0.01 µM (A549 [1]): 92%
- growth at 100 µM (NCI-H23): -45%
- growth at 0.1 µM (Malme-3M [2]): 90%
- growth at 0.01 µM (SK-MEL-28): 97%
- growth at 0.1 µM [3]: 92%
- growth at 1 µM (A549 [4]): 105%
- GI50 (SK-MEL-2): 2.32 µM
- TGI (SK-MEL-2): 6.7 µM
- CC50 (SK-MEL-2; [28]): 81.6 µM
- growth at 100 µM (SK-MEL-5): -89%
- growth at 100 µM (NCI-H322M [5]): -42%
- growth at 0.1 µM [6]: 97%
- growth at 100 µM [7]: -42%
- growth at 0.1 µM [8]: 80%
- growth at 0.01 µM [9]: 105%
- growth at 0.1 µM (KM12): 99%
- GI50 (U-251): 3.65 µM
- LC50 (U-251): 53.6 µM
- TGI (U-251): 13.7 µM
- GI50 (K562): 3.53 µM
- TGI (K562): > 100 µM
- CC50 (K562; [28]): > 100 µM
- growth at 0.1 µM (A498 [10]): 67%
- growth at 0.1 µM [11]: 94%
- growth at 1 µM [12]: 68%
- GI50 [13]: 2.61 µM
- LC50 [13]: > 100 µM
- TGI [13]: 12.4 µM
- growth at 100 µM (A549 [14]): -67%
- growth at 1 µM (SR): 100%
- growth at 0.01 µM (NCI-H322M [15]): 91%
- growth at 100 µM [16]: -51%
- GI50 [17]: 2.79 µM
- TGI [17]: 8.37 µM
- CC50 [17, 28]: 40 µM
- IC50 [18]: 4.3 µM
- growth at 1 µM [19]: 87%
- growth at 100 µM [20]: -84%
- growth at 100 µM (NCI-H460): -69%
- growth at 0.1 µM [21]: 94%
- GI50 [22]: 3.39 µM
- TGI [22]: 15.1 µM
- CC50 [22, 28]: 97.5 µM
- growth at 100 µM (A498 [23]): -65%
- growth at 0.01 µM [24]: 100%
- growth at 0.01 µM [25]: 97%
- growth at 1 µM (SN12C): 96%
- growth at 0.1 µM [26]: 86%
- GI50 (Malme-3M [27]): 2.03 µM
- TGI (Malme-3M [27]): 6.65 µM
- CC50 (Malme-3M [27]; [28]): > 100 µM
